One assay concerns TMEM. The experiment in a line: Extravascular Dextran-TMR in fixed tumor sections (multichannel IF). In kind it is in vivo, mouse. As for the experimental part:
In a second independent validation experiment, a group of vehicle- or paclitaxel-treated mice received an i.v injection of Dextran-TMR for 1 hour and then sacrificed and evaluated for vascular permeability in fixed tumor sections (FIG. 2A). Multichannel IF staining included endomucin as a blood vessel exclusion mask and a specific anti-TMR antibody for assessing dextran leakage. A corresponding TMEM IHC staining section was co-aligned to evaluate the presence/absence of TMEM in each vascular profile that presented with vascular leakage. […] For quantification purposes, ˜20-30 vascular profiles were selected for each mouse, based on tissue size, degree of vascularization and quality of endomucin staining. […]
Paclitaxel Increases Metastatic Dissemination of Breast Tumors—To assess if paclitaxel treatment promotes tumor cell dissemination and metastatic incidence, we first quantified and compared incidence and frequency of bursting in mice treated with vehicle or paclitaxel, using IVI (FIGS. 3A-C). […] The same conclusions were reached when frequency of bursting was normalized to the number of TMEM sites, as measured in each field. […] In addition to IVI, extravascular dextran area was quantified and compared as % normalized to the blood vessel area in fixed tumors of mice treated with either vehicle or paclitaxel, using multichannel IF. […]

The test system of assay [1] is Mena^INV. The experiment in a line: Mena^INV protein expression by immunofluorescence in mouse tumors. In kind it is in vivo. The settings on record: PyMT-spontaneous and HT17-xenograft models; p<0.0001. An excerpt: To test this hypothesis, qRT-PCR analysis was first performed for total Mena (panMena), Mena11a and Mena^INV on formalin-fixed paraffin-embedded (FFPE) tumors from all mouse models. […] As shown in the specific Mena^INV IF, the pattern of Mena^INV expression in PyMT mice was heterogeneous (FIG. 4F), consistent with previous observations (40). […] In addition, there was an inverse correlation for the anti-metastatic Mena11a (p<0.01, […]).
(§1) Immunofluorescence. Slides were deparaffinized by melting at 60° C. in an oven equipped with a fan for 20 minutes, followed by 2× xylene treatment for 20 minutes. Slides were rehydrated and antigen retrieval was done in 1 mM EDTA (pH 8.0) or 1× citrate buffer (pH 6.0) (Diagnostic BioSystems) at 97° C. for 20 minutes in a conventional steamer. Endogenous peroxidase was blocked by using 0.3% hydrogen peroxide in water, followed by incubation of slides in a blocking buffer solution (10% FBS, 1% BSA, 0.0025% fish skin gelatin in 0.05% PBST) for 60 minutes at room temperature. […]

Assay [2] deals with Mena^INV. The assay can be described thus: Mena^INV expression before and after NAC or paclitaxel in breast cancer patients. In kind it is in vivo, human. The settings on record: qRT-PCR in FNA biopsies before and one week after second dose of weekly paclitaxel; n=5.
Source text: To further substantiate the translational importance of our preclinical data from PyMT and PDX mice receiving neoadjuvant paclitaxel into human breast cancer patients, we compared Mena^INV expression levels in Pre- and Post-NAC samples. […] Additionally, we analyzed Mena^INV expression by qRT-PCR in fine needle aspiration (FNA) biopsies taken before and one week after the second dose of weekly paclitaxel in an independent small cohort of patients (n=5).
as §1
In general terms: Real-time PCR tracks product formation cycle by cycle.

In a further assay the test system is lung metastases. The assay can be described thus: Lung metastasis and single cancer cell dissemination in lungs. Format: in vivo, mouse. An excerpt:
To further determine the effect of paclitaxel on cancer cell dissemination to distant sites, we harvested lungs and evaluated metastatic foci histologically. An increase was found in both the metastatic incidence (>1 micrometastatic focus of >5 tumor cells) (FIG. 3H) and the number of cancer cell micrometastases in the lungs of paclitaxel-treated mice (FIG. 3I). In addition, we quantified single cell dissemination of breast cancer cells in the lungs of FVB-recipient mice after syngeneic transplantation of MMTV-PyMT/Dendra2^+ tumors using ex vivo microscopy, and found an approximately 2-fold increase (p<0.01) of single Dendra2^+ breast cancer cells in the lungs of paclitaxel-treated mice (FIG. 3J). Overall, data presented in this section indicate that in early-stage breast cancers chemotherapy increases vascular permeability at TMEM sites which is accompanied by increased cancer cell dissemination.
Histology and TMEM Immunohistochemistry.

In the case of `CC(=O)O[C@H]1C(=O)[C@@]2(C)[C@H]([C@H](OC(=O)c3ccccc3)[C@]3(O)C[C@H](OC(=O)[C@H](O)[C@@H](NC(=O)c4ccccc4)c4ccccc4)C(C)=C1C3(C)C)[C@]1(OC(C)=O)CO[C@@H]1C[C@@H]2O` [paclitaxel], the “vascular profiles with extravascular dextran co-localized with at least 1 TMEM” value in the assay on TMEM (fixed tumor sections, Dextran-TMR i.v. for 1 hour) is listed as 96-98%. For the same compound, the “extravascular dextran area normalized to blood vessel area, fold vs vehicle-treated” value in the assay with TMEM (fixed tumors, p<0.05) is 3 fold. Further, the “Mena^INV expression at the protein level” value with Mena^INV [1] is reported as “increased expression”. Besides, the “patients with increase of Mena^INV gene-expression” value in the assay with Mena^INV [2] is 4/5. The “increase of single Dendra2^+ breast cancer cells in the lungs” value in the assay with lung metastases (FVB recipients of MMTV-PyMT/Dendra2^+ tumors, ex vivo microscopy, p<0.01) is on record as “approximately 2 fold”. Besides, the “disseminated cells in the lungs” value in the assay with lung metastases (Mena^-/- PyMT-CFP transplants) is reported as “failed to boost”. In the assay on lung metastases (histological evaluation), the “metastatic incidence (>1 micrometastatic focus of >5 tumor cells) in lungs” value is “increase” and the “number of cancer cell micrometastases in the lungs” value is “increase”.
